Experimental findings from patent US6548553B2, “Styryl sulfone anticancer agents” (Temple University-of the Commonwealth System of Higher …, priority 1997, dated 2003) are described below.

What all share (assay type): cell-based
For one test, the system named is SKBR-3 and BT-20 cells. The test is described as follows: Trypan blue exclusion viability assay, breast tumor cell lines. The following applies: 48 hours. Here is the method: (§1) The effect of FR-20 on the growth of normal and tumor cells of breast and prostate was examine utilizing nine cell lines: NIH/3T3 and HFL (normal fibroblast cell lines); MCF-7 and 361 ([…] breast tumor cell lines); BT-20, 435 and SKBR-3 ([…] breast tumor cell lines); LnCaP (androgen sensitive prostate tumor cell line); PC-3 and DU-145 (androgen insensitive prostate tumor cell line).
(§2) The cells were grown as in Example 22, A. FR-20 was dissolved in DMSO and added to the cells at 2.5 μM and 5.0 μM concentration. To control cells, DMSO was added equivalent to the volume of solvent (DMSO) present at the highest concentration of the compound. The activity of the compound was evaluated after 48 hours by Trypan blue exclusion. […] Nearly 50% of SKBR-3 and BT-20 cells were dead at 2.5 μM and 75% at 5.0 μM concentration of the compound. […] FRI-20 had profound effect on the viability of androgen-dependent LnCaP prostate tumor cell line when compared to androgen-independent DU-145 and PC-3 prostate cell lines. At […] FRI-20, 80% of LnCaP, 40% of PC-3 and 20% of DU-145 cells were killed. At […] FRI-20, 72% of LnCaP, 47% of PC-3 and 40% of DU-145 were killed (FIG. 3B).

For test [1], the system named is MCF-7, HTB126, T470 and 435 cells. The description is as above. To be noted: 48 hours. As for the experimental part:
as §1, §2

For the next test, the system named is LnCaP and MCF-7 cells. The test is described as follows: Trypan blue exclusion viability assay, Tables 2-4. The following applies: 5.0 μM compound, 48 hours, read-out: % viable LnCaP and MCF-7 cells. As for the experimental part:
The effect of the styryl sulfones on the growth of normal and tumor cells of breast and prostate was examine utilizing four cell lines, NIH3T3, MCF-7, BT-20 and LnCap. NIH/3T3 cells represent normal fibroblasts while LnCap is an androgen-dependent prostate tumor cell line. MCF-7 is an estrogen-responsive breast tumor cell line, while BT-20 is an estrogen-unresponsive breast tumor cell line. MCF-7 and BT-20 were grown in Dulbecco's modified Eagle's medium (DMEM) containing 10% fetal bovine serum supplemented with penicillin and streptomycin. LnCaP were cultured in RPMI with 10% fetal bovine serum containing penicillin and streptomycin. NIH3T3 cells were grown in DMEM containing 10% calf serum supplemented with penicillin and streptomycin. All cell cultures were maintained at 37° C. in a humidified atmosphere of 5% CO2.
Cells were treated with test compound at 2.5 μM or 5.0 μM concentration and cell viability was determined after 48 hours by the Trypan blue exclusion method. The compounds identified in Tables 2, 3 and 4 inhibited cell growth and induced cell death, to varying degrees. The tables list the percent viable LnCap and MCF-7 cells treated with 5.0 μM compound.

The test system of a further test is DU145 cells. The test is described as follows: Comparison with cisplatin, Trypan blue viability after 72 hours. To be noted: DU145, 72 hours, Trypan blue exclusion. As for the experimental part:
(§3) The killing effect of FR-20 on androgen-sensitive (LnCaP) and androgen insensitive (DU145) prostate tumor cells was compared to the effect of cisplatin (cis-diamminedichloroplatinum II), a widely used anti-prostate cancer agent. The cells were grown as in Example 26. FRI-20 or cisplatin was dissolved in DMSO and added to the cells at various concentrations. Viability was determined after 72 hours by the Trypan blue exclusion method. The concentration of FRI-20 required to completely kill LnCaP and DU145 cells was 2.5 μM and 5.0 μM, respectively. Under identical conditions, complete killing of LnCaP and DU145 cells by cisplatin required 25 μM and 15 μM concentrations, respectively.

Another test has as its system LnCaP cells. Described as above. Here is the method:
as §3

For the next test, the system named is NIH3T3 or HFL. The test is described as follows: Cell cycle analysis, normal cell lines.
Another test concerns the target T1, ERK-2 (Homo sapiens, UniProt P28482).
T1 construct: ERK-2 in 100 mg of cell lysate was immunoprecipitated; endogenous in cells; host or cells: LnCaP, MCF-7 (human) and NIH3T3 (mouse) cells
The test is described as follows: Immune complex ERK-2 kinase assay with MBP substrate, treated cells. Details: dose or concentration left out as unconfirmed. To be noted: prostate tumor cells. Here is the method: To examine the effects of FRI-20 on the MAPK pathway, NIH3T3, LnCaP and MCF-7 cells were incubated with FRI-20 at a concentration […] for 48 hours. Following incubation of cells in the presence and absence of FRI-20, the cells were lysed using ERK lysis buffer containing 20 mM HEPES (pH 7.4), 50 mM β-glycerophosphate, 0.5% Triton X-100, 2 mM MgCl2, 1 mM EGTA, 1 mM dithiothreitol, 2 μg/ml leupeptin, 2 μg/ml aprotinin, 100 μM phenylmethylsulfonyl fluoride, and 1 mM benzamidine. ERK-2 in […] of cell lysate was immunoprecipitated by incubating lysate protein with […] of ERK-2 polyclonal antibody (antibody sc-154 to ERK2 is from Santa Cruz Biotechnology, Inc.) for one hour followed by an additional incubation of 20 μl of protein A-Sepharose (Pharmacia) for one hour. The immune complex-bound protein A-Sepharose beads were washed twice with lysis buffer and twice with
ERK/MAPK buffer containing 20 mM HEPES (pH 7.4), 50 mM β-glycerophosphate, 10 mM MgCl2, 1 mM EGTA, 1 mM dithiothreitol, and […] Na3VO4.
The immunoprecipitates were then tested for MAP kinase activity by an in vitro assay which utilizes myelin basic proteins (MBP) as a substrate for ERK-2 in the presence of [γ-^32P] ATP. Accordingly, the beads were resuspended in 40 μl of MAPK buffer containing 100 μM [γ-^32P] […]

T1 sequence (P28482 2-360): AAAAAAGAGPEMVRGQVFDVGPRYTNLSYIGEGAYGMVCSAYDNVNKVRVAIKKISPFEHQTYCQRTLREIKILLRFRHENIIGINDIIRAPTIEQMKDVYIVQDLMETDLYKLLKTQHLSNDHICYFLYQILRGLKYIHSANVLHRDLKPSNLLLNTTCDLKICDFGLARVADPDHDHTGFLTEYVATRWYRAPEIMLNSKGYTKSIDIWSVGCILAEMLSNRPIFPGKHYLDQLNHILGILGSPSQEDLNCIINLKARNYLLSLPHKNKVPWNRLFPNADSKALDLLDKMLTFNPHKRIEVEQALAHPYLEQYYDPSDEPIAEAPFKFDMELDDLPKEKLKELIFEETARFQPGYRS

Regarding `O=S(=O)(/C=C/c1ccc(F)cc1)Cc1ccc(Cl)cc1` [Example 11, E-4-fluorostyryl 4-chlorobenzyl Sulfone], the dead cells with SKBR-3 and BT-20 cells (2.5 µM) is listed as roughly 50%; with SKBR-3 and BT-20 cells (5.0 µM), 75%. Besides, the viability at 2.5 µM in test [1] (2.5 µM) was less than 25%. Also, the viability at 5 µM in test [1] (5.0 µM) was less than 10%; in the test on LnCaP and MCF-7 cells it was 6%. The “concentration required to completely kill cells” value in the test on DU145 cells came out at 5.0 µM; with LnCaP cells (LnCaP, 72 hours, Trypan blue exclusion), 2.5 µM. The “activity relative to cisplatin in killing prostate tumor cells” value in the test on LnCaP cells (both LnCaP and DU145, 72 hours) is reported as “at least tenfold more active than cisplatin”. Also, the “effect on cell cycle progression” value with NIH3T3 or HFL is “failed to produce a similar effect on cell cycle progression”. For the same compound, on ERK-2, the “reduction of phosphorylation status of MBP compared to mock-treated cells” value is recorded as “more than 80%”.
